The values below come from patent US9676727B2, “Myxovirus therapeutics, compounds, and uses related thereto” (priority 2011, dated 2017).

What is called EC50 is the concentration needed to bring the measured effect to its halfway point. What is called CC50 is the concentration at which the toxic effect on the cells reaches its halfway point. Low values mean harm at low concentration, high ones better tolerance by the cells. The AUC(0-inf) is total exposure, with the tail of the curve extrapolated. Higher therefore signals high exposure. By Cmax is commonly meant the peak of the concentration-time curve. For orientation: Tmax means the time at which the peak concentration occurs. One may read the bioavailability as the share of a dose that reaches the circulation, judged against a reference dose that is usually intravenous.

For data set [1], the system named is MV-Alaska. As to the kind of experiment: Viral CPE-reduction assay (MeV-Alaska in Vero-SLAM cells, crystal violet). The note with it: Measles morbillivirus. In kind it is cell-based, Measles virus (MeV). Here is the method:
Methods for evaluating viral activity are provided for in Yoon et al., J Biomol Screen., 2008, 13(7): 591-608 and Krumm et al., PLoS ONE, 2011, 6(5), e20069, both hereby incorporated by reference in their entirety. In certain instances, Vero-SLAM cells were infected with MeV-Alaska in four replicates per compound concentration in a 96-well plate format at an MOI of 0.4 pfu/cell in the presence of the inhibitor. At 96 hours post-infection, cell monolayers were subjected to crystal violet staining (0.1% crystal violet in 20% ethanol), and the absorbance of dried plates at 560 nm determined. Virus-induced cytopathicity was then calculated according to the formula [% rel. CPE=100-(experimental-minimum)/(maximum-minimum)*100], with minimum referring to infected, vehicle-treated wells and maximum to mock-infected wells.

The nature of data set [2]: Aqueous solubility by nephelometry. The note with it: for Aqueous solubility (μg/ml) Test: buffer pH=7.4; for solubility: buffer, pH 7.4, aqueous buffer, kinetic from dmso stock. In kind it is physicochemical.
The next data set can be described thus: MTT cytotoxicity. In kind it is cell-based. The note with it: African green monkey, Vero cells; averages of at least three experiments; highest concentration assessed 75 μM.
The subject of data set [3] is MV-Alaska. As to the kind of experiment: Virus yield (virus titer) reduction assay. In kind it is cell-based, Measles virus (MeV). The note with it: Measles morbillivirus.
The nature of data set [4]: Pharmacokinetic study in rat, plasma concentration after dosing. Format: in vivo, Sprague-Dawley rat. The note with it: for AUC(0-inf) / AUC (0-t) / Cmax / Tmax / half-life / AUC (0-∞) / T½: suspension in PEG200/0.5% methylcellulose (10/90); for half-life: read-out: T½ (converted); for dose proportionality: range of 10 mg/kg to 50 mg/kg. Here is the method:
Preliminary pharmacokinetic (PK) studies in the Sprague-Dawley rat compared AS-136a with compounds 2k and 2o following p.o. dosing by oral gavage at 10 mg/kg and 50 mg/kg in a PEG200/0.5% methylcellulose (10/90) vehicle (n=4/group).
The data from the preliminary pharmacokinetic studies using the 6-hour time point are reported for comparison purposes. […] On the basis of its excellent in vitro potency, good solubility and pharmacokinetic profile, compound 2o was chosen for further bioavailability evaluation.

In a further data set the test system is Vero cells. As to the kind of experiment: MTT cytotoxicity. The note with it: averages of at least three experiments; highest concentration assessed 75 μM. In kind it is cell-based.
The mark [5] stands for this setting: Table 3, averages of four experiments, concentration range 2.3-75 μM, read-out: EC50 (μM) (MV-Alaska) CPE inhibition.
Setting [6] is: MV-Alaska, read-out: EC50 in the virus titer reduction assay.
The mark [7] stands for this setting: averages of two to four experiments ± SEM, highest concentration assessed 1 μM, read-out: EC50 (μM) (MV-Alaska) virus titer reduction.
Where [8] appears, read: Sprague-Dawley, plasma, oral 10 mg/kg.
[9] abbreviates: Sprague-Dawley, plasma, oral 50 mg/kg.

The structures appear in SMILES notation. In brackets after ≈: the same amount, converted by molar mass. Where two headings read alike, the source gives them in different places. Where only a bound is given, the exact number is not on record here.

As to `Cn1nc(C(F)(F)F)cc1C(=O)Nc1ccc(S(=O)(=O)c2ccccc2O)cc1` [Compound 3c, N-(4-((2-hydroxyphenyl)sulfonyl)phenyl)-1-methyl-3-(trifluoromethyl)-pyrazole-5-carboxamide], in the data set with MV-Alaska [1] (Table 2, phenyl and acyclic series, read-out: EC50 (μM) (MV-Alaska) (CPE inhibition)), the concentration for a half-maximal effect (EC50) turned out to be 4.5 µM. Further, the “Aqueous solubility (μg/ml) Test” value in data set [2] (Nephelometer) was 67 µg/mL. Further, in “MTT cytotoxicity”, the 50% cytotoxic concentration (CC50) was not below 75 µM.

Take `Cn1nc(C(F)(F)F)cc1C(=O)Nc1ccc(S(=O)(=O)N2CCCCC2CCN2CCOCC2)cc1` (single isomer, unassigned) [Compound 2o, 1-methyl-N-(4-((2-(2-morpholinoethyl)piperidin-1-yl)sulfonyl)phenyl)-3-(trifluoromethyl)-pyrazole-5-carboxamide]: the EC50 worked out at 4.5 µM in the data set on MV-Alaska [1] (Table 1, piperidine series, read-out: EC50 (μM) (MV-Alaska) (CPE inhib.)); 4.5 µM with MV-Alaska [1] (setting [5]); 0.02 µM with MV-Alaska [3] (setting [6]); 0.02 µM with MV-Alaska [3] (setting [7]). Further, the AUC(0-inf) was found to be 818 ng·h/mL in data set [4] (setting [8]) and 7860 ng·h/mL in data set [4] (setting [9]). Moreover, the AUC (0-t) in data set [4] (Sprague-Dawley, plasma, oral 10 mg/kg, read-out: AUC (0-t)) was 683 ng·h/mL; in data set [4] (Sprague-Dawley, plasma, oral 50 mg/kg, read-out: AUC (0-t)) it was 3520 ng·h/mL. Besides, the Cmax worked out at 195 ng/mL in data set [4] (Sprague-Dawley, plasma, oral 10 mg/kg, read-out: Cmax) and 823 ng/mL in data set [4] (Sprague-Dawley, plasma, oral 50 mg/kg, read-out: Cmax). In addition, the Tmax in data set [4] (Sprague-Dawley, plasma, oral 10 mg/kg, read-out: Tmax) stood at 1.1 h; in data set [4] (Sprague-Dawley, plasma, oral 50 mg/kg, read-out: Tmax) it was 1.5 h. Besides, the values for the half-life in data set [4] (setting [8]) and in data set [4] (setting [9]) were 2.2 h and 6.5 h, respectively. Besides, the bioavailability in data set [4] (Sprague-Dawley, plasma, oral, 2 mg/kg i.v. and 10 mg/kg p.o., read-out: oral bioavailability (F)) is 39%. Also, in data set [4] (p.o.), the “exposure (AUC/Cmax) increase in rat relative to AS-136a” value amounted to 10 fold. For the same compound, the dose proportionality entry in data set [4] (p.o.) was “near dose proportionality”. Further, the solubility in data set [2] (Nephelometer, read-out: Aqueous solubility (μg/ml) Test) is 60 µg/mL (≈ 113 µM); in data set [2] (nephelometry, read-out: aqueous solubility), approximately 60 µg/mL (≈ 113 µM). Also, the CC50 in “MTT cytotoxicity” is more than 75 µM.

For the compound `Cn1nc(C(F)(F)F)cc1C(=O)Nc1ccc(S(=O)(=O)N2CCCCC2CCO)cc1` (stereo not shown) [Compound 2k, N-(4-((2-(2-hydroxyethyl)piperidin-1-yl)sulfonyl)phenyl)-1-methyl-3-(trifluoromethyl)-pyrazole-5-carboxamide], the EC50 in the data set on MV-Alaska [1] (setting [5]) turned out to be 2.7 µM. Besides, in the data set with MV-Alaska [1] (MV-Alaska, read-out: EC50, CPE assay), the concentration giving a half-maximal response (EC50) stood at 2.7 µM. For the same compound, the EC50 in the data set with MV-Alaska [3] (setting [6]) came out at 0.06 µM. For the same compound, the EC50 in the data set with MV-Alaska [3] (setting [7]) worked out at 0.06 µM. Further, in data set [4] (oral 10 mg/kg), the “AUC (0-t)” value was 56.3 ng·h/mL, the “AUC (0-∞)” value worked out at 56.8 ng·h/mL, the peak concentration (Cmax) was 19.8 ng/mL and the time of peak concentration (Tmax) worked out at 1 h. In data set [4] (oral 10 mg/kg), this compound had a T½ of 0.8 h. Also, in data set [4] (oral 50 mg/kg), the “AUC (0-t)” value is 754 ng·h/mL, the “AUC (0-∞)” value worked out at 973 ng·h/mL, the Cmax worked out at 184 ng/mL and the Tmax was found to be 0.5 h. The same compound had a T½ in data set [4] (oral 50 mg/kg) of 2.7 h. The dose proportionality result in data set [4] (p.o.) is on record as “non-proportionality”. For the same compound, the “Aqueous solubility (μg/ml) Test” value in data set [2] (Nephelometer) is 62 µg/mL. In the data set with Vero cells, the cytotoxic concentration (CC50) was more than 75 µM.
